From ChEMBL document CHEMBL3352078, “Repurposing human PDE4 inhibitors for neglected tropical diseases: design, synthesis and evaluation of cilomilast analogues as Trypanosoma brucei PDEB1 inhibitors” (Bioorg Med Chem Lett, 2014)

Tests used:
[1] = biological target: T1, Class 1 phosphodiesterase PDEB1 (Trypanosoma brucei) (UniProt Q8WQX9); assay: Inhibition of Trypanosoma brucei recombinant PDEB1 at 10 uM pre-incubated for 5 mins prior to substrate addition
T1 sequence (whole entry): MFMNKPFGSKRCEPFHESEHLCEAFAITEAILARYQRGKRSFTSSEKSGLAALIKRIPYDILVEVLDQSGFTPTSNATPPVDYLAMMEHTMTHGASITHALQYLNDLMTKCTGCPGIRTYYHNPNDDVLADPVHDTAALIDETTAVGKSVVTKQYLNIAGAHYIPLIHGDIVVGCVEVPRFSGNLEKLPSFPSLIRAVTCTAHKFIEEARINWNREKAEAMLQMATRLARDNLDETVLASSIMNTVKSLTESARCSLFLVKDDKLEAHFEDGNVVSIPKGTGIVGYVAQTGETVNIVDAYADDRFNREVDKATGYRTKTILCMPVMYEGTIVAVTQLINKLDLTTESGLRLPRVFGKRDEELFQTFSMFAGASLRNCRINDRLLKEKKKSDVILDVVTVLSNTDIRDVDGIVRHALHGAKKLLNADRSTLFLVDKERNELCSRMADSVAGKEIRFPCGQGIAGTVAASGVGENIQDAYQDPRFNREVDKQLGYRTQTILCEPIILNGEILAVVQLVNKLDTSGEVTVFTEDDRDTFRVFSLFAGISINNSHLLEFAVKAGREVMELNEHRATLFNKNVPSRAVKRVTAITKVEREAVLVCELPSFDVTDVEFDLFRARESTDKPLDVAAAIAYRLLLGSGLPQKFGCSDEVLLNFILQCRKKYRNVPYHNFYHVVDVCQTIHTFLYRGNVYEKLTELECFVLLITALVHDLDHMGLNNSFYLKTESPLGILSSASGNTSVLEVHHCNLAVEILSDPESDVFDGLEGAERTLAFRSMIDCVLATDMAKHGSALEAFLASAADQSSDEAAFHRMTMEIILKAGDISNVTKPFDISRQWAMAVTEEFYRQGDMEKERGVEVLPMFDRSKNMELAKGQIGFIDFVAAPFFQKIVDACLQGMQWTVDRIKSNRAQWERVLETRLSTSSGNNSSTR

[2] = biological target: T2, Class 1 phosphodiesterase PDEB1 (Trypanosoma brucei, UniProt Q8WQX9); assay: Inhibition of Trypanosoma brucei recombinant PDEB1 pre-incubated for 5 mins prior to substrate addition
T2 sequence (Q8WQX9 whole entry): T1 sequence (whole entry)

[3] = Cytotoxicity against mouse NIH/3T3 cells by Alamar blue cell viability assay; assay type: cell-based, NIH3T3; settings: read-out: TC50 (the source's name)
Trypanosoma brucei = assay: Antiparasitic activity against Trypanosoma brucei after 22 to 24 hrs by Alamar blue cell viability assay; assay type: functional, organism-based
[4] = Inhibition of Trypanosoma brucei PDEB2

SMILES	inhibition [1] [%]	IC50 [2] [µM]	other results
COc1ccc([C@]2(C#N)CC[C@H](C(=O)O)CC2)cc1OCc1ccccc1	20		
COc1ccc([C@]2(C#N)CC[C@H](C(=O)O)CC2)cc1OC1CCCC1	9.3		
COc1ccc(OCCCCOc2cc([C@]3(C#N)CC[C@@H](C(=O)O)CC3)ccc2OC)cc1	79	3.5	
COc1ccc([C@]2(C#N)CC[C@@H](C(=O)O)CC2)cc1OCc1ccccc1	77	12	
COc1ccc([C@]2(C#N)CC[C@@H](C(=O)O)CC2)cc1OCCCCOc1ccc(C#N)cc1	87	3.6	
COc1ccc([C@]2(C#N)CC[C@@H](C(=O)OC)CC2)cc1OC1CCCC1	31		
COc1ccc([C@]2(C#N)CC[C@@H](C(=O)O)CC2)cc1OCc1ccncc1	11		
COc1ccc([C@]2(C#N)CC[C@H](C(=O)OC)CC2)cc1OC1CCCC1	26		
COc1ccc([C@]2(C#N)CC[C@@H](C(=O)O)CC2)cc1OCCCOc1ccccc1	66	11	
CCOC(=O)CN1CCC(C#N)(c2ccc(OC)c(OC3CCCC3)c2)CC1	6		
COc1ccc([C@]2(C#N)CC[C@@H](C(=O)O)CC2)cc1OCCCCOc1ccc(C)cc1	74	4.9	
COc1ccc([C@]2(C#N)CC[C@@H](C(=O)O)CC2)cc1OCCCCOc1ccc(-c2nn[nH]n2)cc1	69	7.9	
COc1ccc([C@]2(C#N)CC[C@@H](C(=O)OC)CC2)cc1OCc1ccccc1	40		
COc1ccc([C@]2(C#N)CC[C@@H](C(=O)O)CC2)cc1OCc1ccccn1	33		
COc1ccc([C@]2(C#N)CC[C@@H](C(=O)O)CC2)cc1OC1CCCC1 [CILOMILAST]		16	CC50 [3]: > 50 µM; EC50 (Trypanosoma brucei): > 50 µM
COc1ccc([C@]2(C#N)CC[C@@H](C(=O)O)CC2)cc1OCCCCCOc1ccccc1	54	9.8	
COc1ccc([C@]2(C#N)CC[C@@H](C(=O)O)CC2)cc1OCCCCOc1ccc(F)cc1	79	9.2	
COc1ccc([C@]2(C#N)CC[C@H](C(=O)OC)CC2)cc1OCc1ccccc1	28		
COc1ccc(C2(C#N)CCNCC2)cc1OC1CCCC1	19		
COc1ccc([C@]2(C#N)CC[C@@H](C(=O)O)CC2)cc1OCCCCOc1ccccc1	96		IC50 [4]: 2.1 µM; CC50 [3]: > 50 µM; EC50 (Trypanosoma brucei): 26 µM
COc1ccc(C2(C#N)CCN(CC(=O)O)CC2)cc1OC1CCCC1	11		
